# Assay results as given in patent US12527776B2, “Treatment of ciliopathies using inhibitors of glucosylceramide synthase (GCS)” (GENZYME CORPORATION, priority 2019, dated 2026).
# Experiments:
# Bbs2−/− mice = assay: Retinal degeneration in Bbs2−/− mice (OCT, immunofluorescence); assay type: in vivo, mouse; details: treatment for 5 months from one month of age
# Description: (§1) A Bbs2^−/− mouse model has been described by Nishimura D Y et al. (Proc Natl Acad Sci, 101:16588-16593 (2004)) with exons 5-14 of Bbs2 replaced with a neomycin cassette. Mice were backcrossed into 129/SvJ background. Treated Bbs2^−/− mice were fed ad libitum with 0.033% w/w of Compound 1 incorporated in feed from the age of 1 month to 6 months. Bbs2^−/− and Wt control animals were fed regular 5053 chow (LabDiet). To establish metabolic disease, Bbs2^−/− mice were left untreated until four-months of age, and then treated with Compound 1 incorporated into feed for the fifth and sixth months.
# A non-invasive imaging technique, optical coherence tomography (OCT) using the Bioptigen Envisu R2200 instrument, was used to generate a cross-sectional image of the retina with 2 micron resolution to measure the thickness of the retinal cell layers in vivo.
# Paraffin-embedded samples of eyes from Wt and Bbs2^−/− mice were prepared and analysed as described supra. The primary antibodies used were rhodopsin (Thermo Scientific) and cone arrestin (EMD Millipore).
# [1] = test system: human preadipocytes SQ cells with BBS1, BBS2 or BBS10 knocked-down; assay: In vitro adipocyte differentiation assay; assay type: cell-based; details: 1.25-10 μM, 10 days differentiation
# Experimental: In Vitro Adipocyte Differentiation Assay
# In order to examine the effect of Compound 1 on other mutations, we developed an in vitro differentiation assay in human preadipocyte cells. The BBS genes BBS1, BBS2, or BBS10 were knocked-down in cells using siRNA. For this, human preadipocytes SQ cells (Lonza) were plated in PGM-2 Preadipocyte Growth Medium-2 BulletKit, (Lonza) at 30,000 cells/cm^2 density and grown at 37° C. overnight. On the next day, cells were transfected with BBS1, BBS2 or BBS10 specific siRNA in OptiMem (Invitrogen) in the presence of Lipofectamine 2000 (Invitrogen) and differentiated in RDM-2 medium (Lonza) for 10 days with or without Compound 1 at concentrations of […], 5.0 and 10 μM (stock of Compound 1 was prepared in 100% ethanol and diluted with RDM-2 medium to final concentrations before adding to cells). A mixture of nonspecific siRNA (scrambled) was used as a negative control. Media was harvested for leptin analysis with Quantikine ELISA kit (RnD Systems, Inc.) at days 0, 5, 7 and 10 of adipocytes differentiation. Photomicroscopy (Axiovert 25, Zeiss with LASv4.2, Leica) was used to quantify lipid accumulation, which is evident by the size and quantity of lipid vacuoles in the cells.
# [2] = test system: Bbs2−/− mice adipose tissue; assay: RNA sequencing of adipose tissue of Bbs2−/− mice; assay type: in vivo, mouse; details: 0.033% w/w in feed from 1 to 6 months of age
# Experimental: Total RNA was isolated from previously flash frozen adipose tissue dissected from four six-month old Wt (Wt #1-4), Bbs2^−/− (Bbs #1-4) or Bbs2^−/− treated with 0.033% w/w of Compound 1 (Bbs+Cmpd1 #1-4) in feed from 1 to 6 months of age using TRIzol (Thermo Fisher Scientific) and chloroform extractions. RNA samples were further purified with RNAeasy Mini Kit (Qiagen) to remove genomic DNA. The concentration and purity of RNA was assessed with a NanoDrop 8000 microspectrophotometer (Thermo Fisher Scientific). RNA integrity was then evaluated with a 4200 TapeStation System (Agilent Technologies).
# The sequencing libraries were generated using the TruSeq Stranded mRNA Library Prep Kit as per the manufacturer recommendations (Illumina). Sequencing was performed using High Output NextSeq 500/550 v2.5 kits on an Illumina NextSeq 500 platform (2×75 bp paired-end reads).
# Data analysis was performed with Array Studio V10.1 (Omicsoft Corporation, a Qiagen company) and mapped to Genome Reference Consortium Mouse Build 38. Heatmaps are generated using a Center Scale normalization algorithm on median normalized Log 2 expression values as per the software developer (Omicsoft).
# [3] = test system: Bbs2−/− mouse model of BBS; assay: GL1 analysis in tissues of Bbs2−/− mice; assay type: in vivo; details: 0.033% w/w in feed from 1 to 6 months of age
# Description: as §1
# Quantitative analysis of glycosylceramide was performed by liquid chromatography and tandem mass spectrometry (LC/MS/MS). Briefly, 100 mg of tissue were homogenized in 1 ml of water with Mini Beadbeater (BioSpec Products, Inc., Bartlesville, OK). 10 μl of homogenate was extracted with 1 ml of 90% of 96:2:1:1 acetonitrile/methanol/acetic acid/water (v/v/v/v) (mobile phase A) and 10% of 98:1:1 methanol/acetic acid/water (v/v/v) (mobile phase B); both contained 5 mM ammonium acetate. The samples were placed on a VX-2500 tube vortexer (VWR International, LLC, MA) for 5 min and then centrifuged for 4 min at 8,400 rpm (Beckman Coulter, Inc., IN). […] Quantitation was performed using GL1 standard (Glucocerebrosides, Gaucher's spleen; Matreya, LLC, Pleasant Gap, PA).
smiles,measurement,setting,value
"CC(C)(NC(=O)OC1CN2CCC1CC2)c1cccc(-c2ccc(F)cc2)c1 (stereo not drawn) [Compound 1, 1-azabicyclo[2.2.2]oct-3-yl [2-(4′-fluorobiphenyl-3-yl)propan-2-yl]carbamate]",increase in the thickness of the ONL,Bbs2−/− mice,~2 fold
same,"rod-cone specific staining (rhodopsin, cone arrestin)",Bbs2−/− mice,partial restoration/preservation of rod-cone specific staining
same,leptin secretion,[1],reduction
same,lipid accumulation,[1],reduction of lipid accumulation
same,"expression of genes in adipogenesis, ciliogenesis and sphingolipid homeostasis pathways",[2],normalizes the expression of genes
same,"levels of GL1 in the brain, kidney, liver and serum",[3],reduction
